Results as given in patent publication US10940188B2, “Compounds and methods for treatment and prevention of Flavivirus infection” (priority 2016, dated 2021).
Entries after “also recorded” stand apart in the source; their conditions may differ.

Columns and labels:
ZIKV in human astrocytes = test: ZIKV infection of human astrocytes (ZIKVE immunostaining, NS1 Western blot/ELISA); format: cell-based, Zika virus; settings: PRVABC59
Description: (§1) FIGS. 4A-1, 4A-2, 4B-1, 4B-2, 4B-3, 4C-1, 4C-2, 4D-1, and 4D-2. […] Cells were fixed 24 hours post infection and stained for ZIKVE (green) and DAPI (blue). Scale bar: 50 μm. Also shown is the quantification of ZIKV-infected astrocytes with multiple compound concentrations (FIG. 4A-2). Values represent mean±s.d. (n=6; ***P<0.001; One-way ANOVA). Shown in FIG. 4B-3 is virus production from compound-treated iPSC-derived human astrocytes (as in FIG. 2F) (n=3 cultures). Data represent mean±s.d. […] Shown are sample images and quantification (FIGS. 4B-1 and 4B-2). Values represent mean±s.d. (n=2; ***P<0.01; One-way ANOVA). Synergistic effect of Emricasan/PHA-690509 combination on improving cell viability in ZIKV infected astrocytes. Note that Emricasan and PHA-690509 inhibit the increased caspase-3 activity in a concentration-dependent manner in human astrocytes infected with FSS13025-ZIKV or MR766 ZIKV, and improve cell viability as measured by ATP production (FIGS. 4C-1, 4C-2, 4D-1, and 4D-2). Values represent mean±s.d. […]
FIGS. 8A-8E. […] Cell lysates were harvested 24 hours post infection and analyzed for ZIKV-NS1 and GAPDH protein levels by western blot. Shown are representative Western blot images (FIG. 8A) and quantification (FIG. 8B). […] Shown in FIG. 8D are representative images of immunostaining for ZIKVE (green) and DAPI (gray, left; Scale bar: 20 μm) and quantification (FIG. 8E). […]

ZIKV PRVABC59 in hNPCs = test: ZIKV infection of hNPCs (NS1 Western blot); format: cell-based, Zika virus
Description: as §1, with “Synergistic effect of Emricasan/PHA-690509 combination on improving cell viability in ZIKV infected astrocytes.” left out, “4D-2).” for “4D-2). Values represent mean±s.d.”
SNB-19 cells, BJ astrocytes, or hNPCs were seeded in 12-well plates at approximately 3e5 cells/well. […] Cells and supernatant were harvested 24-48 hours post infection and analyzed by western blot or IFA. Western blot bands were quantified and IFA images counted using ImageJ (NIH, Bethesda, Md.).
SNB-19, BJ astrocyte, or NPCs were seeded in 12-well plates at approximately 3e5 cells/well. […] Cells and supernatant were harvested 24-48 hours post infection and analyzed by western blot or IFA. […]

[1] = tested on: liver injury in chronic Hepatitis C patients; settings: chronic HCV patients; cited from earlier work
[2] = oral, BID, ×4 days, cited from earlier work
[3] = tested on: liver injury and fibrosis; settings: murine NASH model; cited from earlier work
HEK293 cells = test: Toxicity IC50 (cell-killing activity) of the NS1 TR-FRET screen; format: cell-based, human; settings: cell-killing activity

Compound: CC(=O)Nc1ccc([C@H](C)C(=O)Nc2ncc(C(C)C)s2)cc1 [PHA-690509]
- inhibition of ZIKV infection in astrocytes (ZIKV in human astrocytes): inhibited ZIKV^PR infection
- inhibition of ZIKV infection in hNPCs (ZIKV PRVABC59 in hNPCs): inhibited ZIKV^PR infection

Compound: O=C(Nc1ccc([N+](=O)[O-])cc1Cl)c1cc(Cl)ccc1O [Niclosamide]
- inhibition of ZIKV infection in astrocytes (ZIKV in human astrocytes): inhibited ZIKV^PR infection
- inhibition of ZIKV infection in hNPCs (ZIKV PRVABC59 in hNPCs): inhibited ZIKV^PR infection

Compound: C[C@H](NC(=O)C(=O)Nc1ccccc1C(C)(C)C)C(=O)N[C@@H](CC(=O)O)C(=O)COc1c(F)c(F)cc(F)c1F [Emricasan]
- liver injury and tolerability in clinical trials [1]: reduced liver injury and was tolerated over 12 weeks; also recorded: well tolerated in human trials without significant adverse events
- maximum (Cmax) concentration in human blood [2]: 2360 ng/mL
- Cmax ([2]; read-out: maximum (Cmax) concentration in human blood, value in brackets): 4.15 µM
- liver injury and fibrosis [3]: reduces liver injury and fibrosis

Compound: CC[C@H]1CN2CCc3cc(OC)c(OC)cc3[C@@H]2C[C@@H]1C[C@H]1NCCc2cc(OC)c(OC)cc21 [Emetine]
- Tox IC50 (HEK293 cells): No
